Patent US5189050A, “Fermentation analogs of Virginiamycin M1 to treat panic and anxiety disorder” (Merck & Co., Inc., priority 1991, dated 1993)
pIC50: −log10 of the molar value.

Assays:
[1] = tested on: stomach gastrin receptor; conditions: cited from earlier work
[2] = tested on: CCK-A receptors; conditions: cited from earlier work
[3] = tested on: CCK-B receptors; conditions: cited from earlier work
[4] = crude rat brain synaptosomal fraction (title of cited paper); cited from earlier work
[5] = biological target: T1, Pancreatic CCK Receptor (Rattus norvegicus, UniProt P30551); assay: Pancreatic cholecystokinin receptor binding (125I-CCK-8, rat pancreas membranes); conditions: for pIC50: Pancreatic CCK Receptor Binding, rat pancreas, 125I-CCK-8, 37° C., 30 minutes; for effect on the 125I-CCK receptor binding assay: added protease inhibitors
T1 construct: homogenzing a gram of fresh rat pancreas tissue; from tissue; host or cells: fresh rat pancreas membranes
T1 sequence (P30551 1-444): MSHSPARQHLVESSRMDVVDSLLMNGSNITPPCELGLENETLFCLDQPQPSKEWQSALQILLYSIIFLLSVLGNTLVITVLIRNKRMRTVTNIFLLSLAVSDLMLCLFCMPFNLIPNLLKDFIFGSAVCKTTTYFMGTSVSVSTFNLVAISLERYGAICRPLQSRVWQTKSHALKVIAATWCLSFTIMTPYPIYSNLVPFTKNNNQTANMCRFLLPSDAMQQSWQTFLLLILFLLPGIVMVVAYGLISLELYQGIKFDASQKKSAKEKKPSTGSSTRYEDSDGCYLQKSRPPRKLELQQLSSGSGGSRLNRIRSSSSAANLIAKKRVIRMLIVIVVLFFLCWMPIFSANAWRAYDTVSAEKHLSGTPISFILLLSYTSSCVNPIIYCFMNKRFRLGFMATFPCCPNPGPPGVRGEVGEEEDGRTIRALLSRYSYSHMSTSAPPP
Description: Pancreatic Cholecystokinin Receptor Binding Assay
Radiolabeled CCK-8 was purchased from New England Nuclear as ^125 I-CCK-8. Receptor binding was performed according to Innis and Snyder Proc. Natl. Acad. Sci., 77, 6917 (1980), with the minor modification of adding the additional protease inhibitors, phenylmethane sulfonyl fluoride (PMSF) and o-phenanthroline, which have no effect on the ^125 I-CCK receptor binding assay. All assays were performed in triplicate. Pancreatic receptor membranes were prepared by homogenzing a gram of fresh rat pancreas tissue in 30 ml TRIS-HCl (50 mM), pH 7.7 using a Brinkman polytron PT10 (Brinkman). The homogenate was washed twice and collected by centrifugation at 48,000× g at 4° C. for 10 minutes. The membranes were resuspended in assay buffer consisting of 5 mM dithiothieitol, 0.1 mM bacitiacin, 5 mM MgCl2 "H2 O, 0.2% heat denatured BSA, 1.2 mM PMSF and 0.5 mM O-phenanthroline at a concentration of 100 ml per gram of pancreas. […] The reaction mixtures were mixed briefly and placed in a 37° C. water bath with gentle shaking for 30 minutes. The reaction mixtures were then diluted with 4 ml of ice-cold TRIS buffer, pH 7.7, containing 1 mg/ml bovine serum albumin and immediately filtered in Watman G F/B filters. The filters were washed with 3×4 ml of the same buffer and the radioactivity associated with the filters was counted in a Beckman 5500 gamma counter. Broths were prepared by adding two volumes of acetone to original broth; supernatants were freeze dried after centrifugation at 1500 g for 10 minutes. The dried samples were then brought up in methanol/H2 O (1:1) and ready for assay.

[6] = tested on: gram-positive bacteria; conditions: cited from earlier work

Compound	affinity for CCK-A receptors [2]	pIC50 [5]	other results
CSCC[C@H](NC(=O)[C@@H](N)Cc1c[nH]c2ccccc12)C(=O)N[C@@H](CC(=O)O)C(=O)N[C@@H](Cc1ccccc1)C(N)=O [CCK-4]	lower affinity	–	potency at stomach gastrin receptor [1]: minimum fully potent CCK sequence; affinity for CCK-B receptors [3]: high affinity
CSCC[C@H](NC(=O)[C@H](Cc1ccc(O)cc1)NC(=O)[C@@H](N)CC(=O)O)C(=O)NCC(=O)N[C@@H](Cc1c[nH]c2ccccc12)C(=O)N[C@@H](CCSC)C(=O)N[C@@H](CC(=O)O)C(=O)N[C@@H](Cc1ccccc1)C(N)=O [CCK-8d]	lower affinity	–	–
CSCC[C@H](NC(=O)[C@H](Cc1ccc(OS(=O)(=O)O)cc1)NC(=O)[C@@H](N)CC(=O)O)C(=O)NCC(=O)N[C@@H](Cc1c[nH]c2ccccc12)C(=O)N[C@@H](CCSC)C(=O)N[C@@H](CC(=O)O)C(=O)N[C@@H](Cc1ccccc1)C(N)=O [CCK-8s, H-Asp-Tyr(SO3 H)-Met-Gly-Trp-Met-Asp-Phe-NH2]	high affinity	–	half-life [4]: less than 1 hour; affinity for CCK-B receptors [3]: high affinity
CC1=C\C=C\C(=O)Cc2nc(co2)C(=O)N2CCC=C2C(=O)O[C@H](C(C)C)[C@H](C)/C=C/C(=O)NC\C=C\1 [Compound III]	–	< 5.00	–
CC1=C\C=C\[C@H](O)Cc2nc(co2)C(=O)N2CCC=C2C(=O)O[C@H](C(C)C)[C@H](C)/C=C/C(=O)NC\C=C\1 [Compound II]	–	< 5.00	–
CC1=C\C=C\[C@@H](O)Cc2nc(co2)C(=O)N2CCC=C2C(=O)O[C@H](C(C)C)[C@H](C)/C=C/C(=O)NC\C=C\1 [Compound I]	–	< 5.00	–
CC1=C\[C@@H](O)CC(=O)Cc2nc(co2)C(=O)N2CCC=C2C(=O)O[C@H](C(C)C)[C@H](C)/C=C/C(=O)NC\C=C\1 [Virginiamycin M1]	–	< 4.00	antibacterial specificity and action [6]: generally specific for gram-positive bacteria and prevent cell multiplication
c1cnc2c(c1)ccc1cccnc12 [o-phenanthroline]	–	–	effect on the 125I-CCK receptor binding assay [5]: no effect
CSCC[C@H](NC(=O)[C@H](Cc1c[nH]c2ccccc12)NC(=O)CCNC(=O)OC(C)(C)C)C(=O)N[C@@H](CC(=O)O)C(=O)N[C@@H](Cc1ccccc1)C(N)=O [pentagastrin]	–	–	affinity for CCK-B receptors [3]: high affinity
O=S(=O)(F)Cc1ccccc1 [phenylmethane sulfonyl fluoride (PMSF), phenylmethane sulfonyl fluoride]	–	–	effect on the 125I-CCK receptor binding assay [5]: no effect
gastrin	lower affinity	–	–
